Test results reported in patent US8771975B2, “Quantitation of GCP activity in biological samples” (The Johns Hopkins University, priority 2011, dated 2014).
Read-outs that look alike come from different tables or passages of the source.

Columns and labels:
GCP [1] = molecular target: T1, GCP (Rattus norvegicus, UniProt P70627); type: in vivo; conditions: 1 hour after administration
T1 construct: Reconstituted pellet preparations from rat paw pads were used as source of GCP II; from tissue; host or cells: male Wistar rat paw pad skin (plantar hindpaw), 16000xg pellet; animals dosed i.p. with 2-PMPA
T1 sequence (P70627 whole entry): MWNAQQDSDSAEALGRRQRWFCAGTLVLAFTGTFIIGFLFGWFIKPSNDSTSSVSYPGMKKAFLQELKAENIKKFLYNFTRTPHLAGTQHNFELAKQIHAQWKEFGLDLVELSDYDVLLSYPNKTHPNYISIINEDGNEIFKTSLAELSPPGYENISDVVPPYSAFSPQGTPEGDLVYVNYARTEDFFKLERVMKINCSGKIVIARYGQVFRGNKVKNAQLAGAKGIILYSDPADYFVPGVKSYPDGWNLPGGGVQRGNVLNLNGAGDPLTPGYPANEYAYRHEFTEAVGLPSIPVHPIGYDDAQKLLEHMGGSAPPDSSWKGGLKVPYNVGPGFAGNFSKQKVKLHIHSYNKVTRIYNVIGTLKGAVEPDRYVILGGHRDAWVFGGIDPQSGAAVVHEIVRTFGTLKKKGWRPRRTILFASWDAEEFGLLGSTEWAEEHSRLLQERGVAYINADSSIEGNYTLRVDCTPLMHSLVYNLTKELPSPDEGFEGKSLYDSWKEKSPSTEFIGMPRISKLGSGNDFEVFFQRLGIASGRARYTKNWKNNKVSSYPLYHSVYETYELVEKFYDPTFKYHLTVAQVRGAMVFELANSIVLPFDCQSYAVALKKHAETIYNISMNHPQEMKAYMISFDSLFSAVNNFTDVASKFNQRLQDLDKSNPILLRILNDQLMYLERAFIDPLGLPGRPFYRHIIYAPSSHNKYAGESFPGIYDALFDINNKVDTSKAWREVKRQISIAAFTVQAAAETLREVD
Protocol: A determination of GCP activity was carried out using male Wistar rat paw pads. Skin was collected from the planter hindpaw by 3 mm skin biopsy dissection and sonicated for 2 minutes in ice. The mixture was centrifuged for 2 minutes at 16000×g and the resulting pellet was reconstituted similar to the pellets obtained from the human skin dissections. Reconstituted pellet preparations from rat paw pads were used as source of GCP II and incubated with [^3H] NAAG, as described above for the human skin samples.
In order to determine if GCP activity in skin in vivo could be inhibited by peripheral administration of 2-PMPA, rats were administered vehicle (HEPES saline, pH 7, 50 mM) or 2-PMPA (1, 10 and 100 mg/kg, i.p.) using a dosing volume of 2 mL/kg. There were 10 animals in each group. Animals were sacrificed 1 hour after 2-PMPA or vehicle administration. […]

GCP [2] = assay: GCP activity in rat sciatic nerve after peripheral (i.p.) administration; type: in vivo; conditions: 1 hour after administration
From the text: Sciatic nerve is the target tissue for GCP inhibitors in clinical trials for peripheral neuropathy and neuropathic pain. To obtain sciatic nerve samples, 1-2 cm incisions were made to the skin on top of the rat's mid-thigh so that sciatic nerve, gluteus superficialis muscle and biceps femoris muscle were exposed. The three were then separated and 5 mm of sciatic nerve was removed and analyzed as described above for the human skin and rat paw pad samples. GCP activity in sciatic nerve preparations from animals treated with 1, 10 and 100 mg/kg 2-PMPA was reduced to 92±11, 35±6 and 10±4% respectively compared to activity in sciatic nerve isolated from control animals (FIG. 3). Albeit to a different extent, GCP inhibition in sciatic nerve is attained at similar 2-PMPA doses (10 and 100 mg/kg i.p.) as in footpad tissue.

[3] = 2-PMPA level in paw pads by LC-MS/MS; type: in vivo, rat; conditions: 100 mg/kg i.p., 1 hour after administration, n=9, LC-MS/MS
Protocol: The presence of 2-PMPA in skin was determined. Animals were given 2-PMPA (100 mg/kg, i.p.), sacrificed 1 hour after compound administration and paw pads isolated for direct determination of 2-PMPA levels by LC-MS/MS. Since 2-PMPA detection by mass spectrometry has low sensitivity due to ion suppression, samples from animals that had received 100 mg/kg 2-PMPA rather than 10 mg/kg were analyzed to increase the probability of detecting 2-PMPA.
Briefly, frozen samples were thawed in a water bath at ambient temperature and subjected to a liquid extraction using MeOH. Samples were placed in brown glass vials containing 500 μL of 100% MeOH. […] The sample was transferred to a 250 μL polypropylene auto sampler vial sealed with a Teflon crimp cap, and a volume of 50 μL was injected onto the HPLC instrument for quantitative analysis using a temperature-controlled auto sampling device operating at 10° C.
Chromatographic analysis was performed using a Waters ACQUITY UPLC (Milford, Mass., USA). […] The column effluent was monitored using an AB SCIEX TRIPLE QUAD 5500 triple-quadrupole mass-spectrometric detector (Applied Biosystems, Foster City, Calif., USA). […] The daughter ions for 2-PMPA (m/z 191.1) and the internal standard (m/z 255.1) were monitored through the third quadrupole (Q3). […]

GCP [4] = assay: GCP enzyme activity assay with human skin biopsy pellet ([3H]-NAAG cleavage); type: biochemical; conditions: 2-PMPA 1 μM added to assay mixture; [3H]-NAAG 70 nM, 37° C.
Protocol: Punch skin biopsies (3 mm) were obtained from the distal thigh of healthy human volunteers after anesthesia with 0.5 cc 2% lidocaine subcutaneous injection. Samples were placed in cold Tris buffer (pH 7.4) and GCP enzymatic activity was carried out within 1 hour of collection. The skin were homogenized, the homogenate was centrifuged and the pellet was used as source of GCP in the enzyme activity assay. Briefly, human skin biopsies were sonicated in Tris buffer (pH 7.4, 40 mM, 0.5 mL) for 1 minute in ice. The mixture was centrifuged for 2 minutes at 16000×g; the supernantant (containing endogenous […]) was removed and the resulting pellet (containing GCP) was reconstituted in 70 μL assay buffer (Tris pH 7.4, 40 mM containing 1 mM CoCl2) and used as source of GCP in the activity assay. Reconstituted pellet was then incubated with [^3H] […] The radioactivity in each vial corresponding to [^3H]-glutamate was determined via a Beckman LS-6000IC scintillation counter. Radioactivity values in dpm were converted to fmoles of glutamate using the relation 1 pCi/2.2 dpm and the specific activity of [^3H]-glutamate (same as that of [^3H]-NAAG: 1 fmole/50 pCi). As a result, if 16711 dpm [^3H]-glutamate were measured after incubating 10 mg tissue for 1 h, the normalized activity would be: 16711 dpm×(1 pCi/2.2 dpm)×(1 fmole/50 pCi)/10 mg tissue=15 fmole/h/mg tissue. […]

SMILES: O=C(O)CCC(CP(=O)(O)O)C(=O)O (stereo not shown) [2-PMPA]
- GCP activity in paw pads compared to control animals (GCP [1]; 10 mg/kg i.p.): 60±11%
- GCP activity in paw pads compared to control animals (GCP [1]; 100 mg/kg i.p.): 47±11%
- GCP activity in sciatic nerve preparations compared to control animals (GCP [2]; 1 mg/kg i.p.): 92±11%
- GCP activity in sciatic nerve preparations compared to control animals (GCP [2]; 10 mg/kg i.p.): 35±6%
- GCP activity in sciatic nerve preparations compared to control animals (GCP [2]; 100 mg/kg i.p.): 10±4%
- 2-PMPA concentration in paw pads [3]: 38±5 μg/g tissue
- inhibition of GCP activity in human skin pellet preparations (GCP [4]): 90%
